# Data from the kinase profiling compilation of Christmann-Franck et al. (2016).
# How the values were obtained:
# Assay in all cases: KINOMEscan competition binding
# Settings in all cases: compound 10.0 µM
# [1] = biological target: ROCK1 (human) (UniProt Q13464)
# [2] = biological target: AURKC (human) (UniProt Q9UQB9)
# [3] = biological target: NTRK2 (human) (UniProt Q16620)
# [4] = biological target: EIF2AK2 (human) (UniProt P19525)
# [5] = biological target: MAP2K4 (human) (UniProt P45985)
# [6] = biological target: AURKA (human) (UniProt O14965)
# [7] = biological target: MAP3K5 (human) (UniProt Q99683)
# [8] = test system: MET (human), P08581 [Y1235D]
# [9] = test system: FGFR3 (human), P22607 [G697C]
# [10] = biological target: GRK4 (human) (UniProt P32298)
# [11] = test system: KIT (human), P10721 [D816V]
# [12] = biological target: MAPK11 (human) (UniProt Q15759)
# [13] = biological target: CDKL3 (human) (UniProt Q8IVW4)
# [14] = biological target: MERTK (human) (UniProt Q12866)
# Sequence of MERTK (human) (Q12866 whole entry, looked up): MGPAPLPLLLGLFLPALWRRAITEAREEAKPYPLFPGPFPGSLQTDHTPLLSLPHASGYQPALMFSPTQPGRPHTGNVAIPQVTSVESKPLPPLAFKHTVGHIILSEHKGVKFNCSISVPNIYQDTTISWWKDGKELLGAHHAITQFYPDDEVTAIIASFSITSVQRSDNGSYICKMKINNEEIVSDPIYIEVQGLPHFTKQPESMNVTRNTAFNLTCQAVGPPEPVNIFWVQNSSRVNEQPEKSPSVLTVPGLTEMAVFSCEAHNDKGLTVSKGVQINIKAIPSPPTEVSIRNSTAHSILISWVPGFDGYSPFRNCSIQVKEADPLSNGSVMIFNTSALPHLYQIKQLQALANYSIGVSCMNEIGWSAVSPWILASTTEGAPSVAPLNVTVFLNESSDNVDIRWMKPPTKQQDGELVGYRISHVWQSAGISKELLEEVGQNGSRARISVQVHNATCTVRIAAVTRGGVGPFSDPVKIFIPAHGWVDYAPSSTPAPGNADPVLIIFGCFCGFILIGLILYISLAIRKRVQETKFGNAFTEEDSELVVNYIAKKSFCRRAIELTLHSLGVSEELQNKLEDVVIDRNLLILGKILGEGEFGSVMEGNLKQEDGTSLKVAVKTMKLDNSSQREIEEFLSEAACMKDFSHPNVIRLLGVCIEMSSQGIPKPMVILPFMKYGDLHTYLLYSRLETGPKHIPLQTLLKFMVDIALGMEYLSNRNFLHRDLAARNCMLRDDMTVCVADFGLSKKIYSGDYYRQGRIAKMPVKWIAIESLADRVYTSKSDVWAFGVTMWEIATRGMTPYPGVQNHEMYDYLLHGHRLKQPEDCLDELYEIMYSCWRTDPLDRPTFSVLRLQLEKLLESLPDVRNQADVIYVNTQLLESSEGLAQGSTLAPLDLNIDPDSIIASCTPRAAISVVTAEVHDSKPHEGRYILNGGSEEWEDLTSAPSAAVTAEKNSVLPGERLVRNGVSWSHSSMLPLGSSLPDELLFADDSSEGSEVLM
# [15] = biological target: STK39 (human) (UniProt Q9UEW8)
# [16] = biological target: LATS1 (human) (UniProt O95835)
# Sequence of LATS1 (human) (O95835 whole entry, looked up): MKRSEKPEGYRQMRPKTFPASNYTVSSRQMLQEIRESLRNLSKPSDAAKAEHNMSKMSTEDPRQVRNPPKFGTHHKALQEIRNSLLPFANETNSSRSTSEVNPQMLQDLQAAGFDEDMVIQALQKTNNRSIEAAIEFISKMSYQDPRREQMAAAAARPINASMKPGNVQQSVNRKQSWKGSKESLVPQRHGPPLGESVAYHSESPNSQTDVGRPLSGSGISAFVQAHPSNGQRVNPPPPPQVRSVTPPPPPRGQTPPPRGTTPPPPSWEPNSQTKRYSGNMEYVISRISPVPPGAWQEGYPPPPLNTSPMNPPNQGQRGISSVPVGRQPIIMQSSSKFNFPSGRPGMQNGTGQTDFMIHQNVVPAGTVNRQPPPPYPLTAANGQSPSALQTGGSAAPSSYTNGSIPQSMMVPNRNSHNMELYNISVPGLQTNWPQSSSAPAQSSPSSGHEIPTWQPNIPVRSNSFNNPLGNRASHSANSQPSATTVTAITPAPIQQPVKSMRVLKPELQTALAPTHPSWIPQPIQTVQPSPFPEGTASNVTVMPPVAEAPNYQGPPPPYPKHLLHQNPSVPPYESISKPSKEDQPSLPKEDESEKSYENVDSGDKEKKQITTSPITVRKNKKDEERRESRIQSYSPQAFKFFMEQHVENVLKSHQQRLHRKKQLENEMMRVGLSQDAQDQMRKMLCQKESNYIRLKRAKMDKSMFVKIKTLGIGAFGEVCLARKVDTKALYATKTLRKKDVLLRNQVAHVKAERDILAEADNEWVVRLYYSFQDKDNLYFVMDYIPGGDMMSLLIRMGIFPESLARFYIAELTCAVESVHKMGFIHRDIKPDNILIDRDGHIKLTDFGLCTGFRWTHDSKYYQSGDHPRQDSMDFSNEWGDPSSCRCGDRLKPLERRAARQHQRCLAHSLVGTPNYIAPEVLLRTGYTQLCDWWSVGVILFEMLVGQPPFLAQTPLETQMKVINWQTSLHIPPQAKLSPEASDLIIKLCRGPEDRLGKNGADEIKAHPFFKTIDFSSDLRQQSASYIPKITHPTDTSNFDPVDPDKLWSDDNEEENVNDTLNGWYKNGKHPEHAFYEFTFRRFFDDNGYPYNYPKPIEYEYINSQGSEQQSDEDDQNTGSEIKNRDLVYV
# [17] = biological target: CaMK1 (human) (UniProt Q14012)
# Sequence of CaMK1 (human) (Q14012 whole entry, looked up): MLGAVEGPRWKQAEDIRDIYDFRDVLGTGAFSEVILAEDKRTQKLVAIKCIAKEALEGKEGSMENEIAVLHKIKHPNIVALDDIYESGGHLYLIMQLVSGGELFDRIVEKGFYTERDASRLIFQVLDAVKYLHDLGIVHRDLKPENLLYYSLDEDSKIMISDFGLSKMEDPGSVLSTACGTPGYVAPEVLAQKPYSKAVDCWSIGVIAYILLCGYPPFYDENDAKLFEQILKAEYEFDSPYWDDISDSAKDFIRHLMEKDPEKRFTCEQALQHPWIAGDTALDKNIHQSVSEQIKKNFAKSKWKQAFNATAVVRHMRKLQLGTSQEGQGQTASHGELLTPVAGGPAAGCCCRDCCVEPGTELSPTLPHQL
# [18] = biological target: EPHA4 (human) (UniProt P54764)
# [19] = biological target: TYK2 JH1 catalytic (human) (UniProt P29597)
# [20] = biological target: ACVR2A (human) (UniProt P27037)
# [21] = biological target: DAPK3 (human) (UniProt O43293)
# [22] = biological target: OXSR1 (human) (UniProt O95747)
# [23] = biological target: MAP3K3 (human) (UniProt Q99759)
# Sequence of MAP3K3 (human) (Q99759 whole entry, looked up): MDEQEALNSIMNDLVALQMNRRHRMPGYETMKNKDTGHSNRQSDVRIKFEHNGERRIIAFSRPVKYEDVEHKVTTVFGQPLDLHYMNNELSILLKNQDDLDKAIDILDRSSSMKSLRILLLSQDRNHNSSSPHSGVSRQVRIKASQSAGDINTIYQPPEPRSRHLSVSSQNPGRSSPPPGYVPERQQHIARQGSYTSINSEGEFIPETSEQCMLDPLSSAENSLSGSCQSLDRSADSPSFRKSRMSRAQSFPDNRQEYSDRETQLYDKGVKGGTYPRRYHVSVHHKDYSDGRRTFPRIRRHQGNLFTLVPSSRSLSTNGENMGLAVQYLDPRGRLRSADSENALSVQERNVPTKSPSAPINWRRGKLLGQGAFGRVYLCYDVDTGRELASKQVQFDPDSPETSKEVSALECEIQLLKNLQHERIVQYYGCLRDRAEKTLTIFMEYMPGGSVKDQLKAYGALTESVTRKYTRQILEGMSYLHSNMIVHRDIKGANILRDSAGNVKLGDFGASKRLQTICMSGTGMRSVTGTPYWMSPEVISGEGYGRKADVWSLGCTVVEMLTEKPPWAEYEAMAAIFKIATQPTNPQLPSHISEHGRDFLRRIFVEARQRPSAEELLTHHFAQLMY
# [24] = biological target: CDKL5 (human) (UniProt O76039)
# [25] = biological target: EPHA5 (human) (UniProt P54756)
# [26] = biological target: PIP4K2B (human) (UniProt P78356)
# [27] = biological target: MAPK9 (human) (UniProt P45984)
# [28] = biological target: GRK1 (human) (UniProt Q15835)
# [29] = biological target: DCLK1 (human) (UniProt O15075)
# [30] = biological target: TLK2 (human) (UniProt Q86UE8)
# [31] = biological target: BRSK1 (human) (UniProt Q8TDC3)
# Sequence of BRSK1 (human) (Q8TDC3 whole entry, looked up): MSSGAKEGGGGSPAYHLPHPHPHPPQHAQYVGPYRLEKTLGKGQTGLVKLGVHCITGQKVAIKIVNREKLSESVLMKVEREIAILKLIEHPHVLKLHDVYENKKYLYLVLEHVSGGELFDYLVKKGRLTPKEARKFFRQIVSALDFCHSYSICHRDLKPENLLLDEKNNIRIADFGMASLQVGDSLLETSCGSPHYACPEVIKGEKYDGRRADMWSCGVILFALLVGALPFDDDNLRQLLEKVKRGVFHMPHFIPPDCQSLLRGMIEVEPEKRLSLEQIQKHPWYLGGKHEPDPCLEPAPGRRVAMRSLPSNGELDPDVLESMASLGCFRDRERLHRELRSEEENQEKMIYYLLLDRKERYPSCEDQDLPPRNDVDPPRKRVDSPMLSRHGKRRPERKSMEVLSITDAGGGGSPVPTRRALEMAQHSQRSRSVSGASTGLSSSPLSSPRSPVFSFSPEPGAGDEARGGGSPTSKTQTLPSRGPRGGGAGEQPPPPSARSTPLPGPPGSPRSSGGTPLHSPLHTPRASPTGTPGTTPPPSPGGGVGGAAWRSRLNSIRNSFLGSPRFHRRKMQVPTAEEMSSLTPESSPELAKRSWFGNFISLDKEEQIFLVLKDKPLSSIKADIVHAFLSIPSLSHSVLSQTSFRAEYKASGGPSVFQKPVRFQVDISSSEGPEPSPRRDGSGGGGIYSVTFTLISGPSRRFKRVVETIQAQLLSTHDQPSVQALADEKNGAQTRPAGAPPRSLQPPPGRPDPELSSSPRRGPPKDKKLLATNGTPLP
# [32] = biological target: SIK3 (human) (UniProt Q9Y2K2)
# [33] = biological target: MAPK3 (human) (UniProt P27361)
# [34] = biological target: PAK4 (human) (UniProt O96013)
# Sequence of PAK4 (human) (O96013 whole entry, looked up): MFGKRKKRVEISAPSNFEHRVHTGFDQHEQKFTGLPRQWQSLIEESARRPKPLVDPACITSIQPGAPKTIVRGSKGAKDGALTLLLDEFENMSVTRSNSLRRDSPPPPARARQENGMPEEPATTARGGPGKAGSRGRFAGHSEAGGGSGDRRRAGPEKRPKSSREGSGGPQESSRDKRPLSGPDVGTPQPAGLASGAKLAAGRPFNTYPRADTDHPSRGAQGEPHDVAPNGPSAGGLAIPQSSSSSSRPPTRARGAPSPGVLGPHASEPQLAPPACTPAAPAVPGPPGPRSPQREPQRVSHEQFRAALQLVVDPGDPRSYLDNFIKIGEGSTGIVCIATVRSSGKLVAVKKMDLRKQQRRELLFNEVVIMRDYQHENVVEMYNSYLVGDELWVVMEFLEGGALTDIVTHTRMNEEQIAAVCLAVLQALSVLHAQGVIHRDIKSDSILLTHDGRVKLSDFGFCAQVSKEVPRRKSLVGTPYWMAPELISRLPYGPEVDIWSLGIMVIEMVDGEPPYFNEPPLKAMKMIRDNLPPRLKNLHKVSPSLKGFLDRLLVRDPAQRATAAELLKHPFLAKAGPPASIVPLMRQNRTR
# [35] = biological target: PTK2 (human) (UniProt Q05397)
# [36] = biological target: RPS6KA6 KD2 (human) (UniProt Q9UK32)
# [37] = biological target: RPS6KA5 KD2 (human) (UniProt O75582)
# [38] = biological target: CDK8 (human) (UniProt P49336)
# [39] = test system: FLT3 (human), P36888 [D835Y]
# [40] = biological target: WEE2 (human) (UniProt P0C1S8)
# [41] = biological target: TLK1 (human) (UniProt Q9UKI8)
# Sequence of EIF2AK2 (human) (P19525 whole entry, looked up): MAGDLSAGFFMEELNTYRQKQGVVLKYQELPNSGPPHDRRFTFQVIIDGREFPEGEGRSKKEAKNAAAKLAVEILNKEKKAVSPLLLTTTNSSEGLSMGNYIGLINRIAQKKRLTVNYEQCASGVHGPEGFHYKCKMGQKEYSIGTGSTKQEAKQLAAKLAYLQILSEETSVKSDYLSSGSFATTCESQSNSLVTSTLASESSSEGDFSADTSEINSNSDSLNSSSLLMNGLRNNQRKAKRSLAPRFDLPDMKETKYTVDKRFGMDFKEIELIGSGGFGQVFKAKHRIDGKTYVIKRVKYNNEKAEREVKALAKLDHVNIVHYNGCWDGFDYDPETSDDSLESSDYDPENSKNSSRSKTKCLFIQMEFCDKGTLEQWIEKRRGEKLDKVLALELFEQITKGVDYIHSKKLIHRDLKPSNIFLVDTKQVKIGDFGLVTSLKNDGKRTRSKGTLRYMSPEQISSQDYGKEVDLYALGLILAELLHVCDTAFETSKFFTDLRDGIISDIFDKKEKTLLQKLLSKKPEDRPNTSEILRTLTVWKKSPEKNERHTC
compound,measurement,setting,value
O=C1Nc2cc(Br)ccc2/C1=C1/Nc2ccccc2/C1=N\O,"kinase still bound, per cent of control",[1],61%
same,"kinase still bound, per cent of control",[2],0.75%
same,"kinase still bound, per cent of control",[3],7.2%
same,"kinase still bound, per cent of control",[4],33%
same,"kinase still bound, per cent of control",[5],67%
same,"kinase still bound, per cent of control",[6],20%
same,"kinase still bound, per cent of control",[7],100%
same,"kinase still bound, per cent of control",[8],100%
same,"kinase still bound, per cent of control",[9],14%
same,"kinase still bound, per cent of control",[10],1.8%
same,"kinase still bound, per cent of control",[11],2.3%
same,"kinase still bound, per cent of control",[12],100%
same,"kinase still bound, per cent of control",[13],82%
same,"kinase still bound, per cent of control",[14],0.4%
same,"kinase still bound, per cent of control",[15],37%
same,"kinase still bound, per cent of control",[16],70%
same,"kinase still bound, per cent of control",[17],28%
same,"kinase still bound, per cent of control",[18],55%
same,"kinase still bound, per cent of control",[19],3%
same,"kinase still bound, per cent of control",[20],41%
same,"kinase still bound, per cent of control",[21],2.7%
same,"kinase still bound, per cent of control",[22],58%
same,"kinase still bound, per cent of control",[23],38%
same,"kinase still bound, per cent of control",[24],7.4%
same,"kinase still bound, per cent of control",[25],30%
same,"kinase still bound, per cent of control",[26],1.5%
same,"kinase still bound, per cent of control",[27],63%
same,"kinase still bound, per cent of control",[28],60%
same,"kinase still bound, per cent of control",[29],99%
same,"kinase still bound, per cent of control",[30],56%
same,"kinase still bound, per cent of control",[31],1.8%
same,"kinase still bound, per cent of control",[32],24%
same,"kinase still bound, per cent of control",[33],100%
same,"kinase still bound, per cent of control",[34],21%
same,"kinase still bound, per cent of control",[35],49%
same,"kinase still bound, per cent of control",[36],83%
same,"kinase still bound, per cent of control",[37],75%
same,"kinase still bound, per cent of control",[38],100%
same,"kinase still bound, per cent of control",[39],0%
same,"kinase still bound, per cent of control",[40],100%
same,"kinase still bound, per cent of control",[41],47%
COc1ccc(CNC(=O)Nc2ncc([N+](=O)[O-])s2)cc1,"kinase still bound, per cent of control",[1],61%
same,"kinase still bound, per cent of control",[2],92%
same,"kinase still bound, per cent of control",[3],81%
same,"kinase still bound, per cent of control",[4],76%
same,"kinase still bound, per cent of control",[5],79%
same,"kinase still bound, per cent of control",[6],84%
same,"kinase still bound, per cent of control",[7],71%
same,"kinase still bound, per cent of control",[8],96%
same,"kinase still bound, per cent of control",[9],100%
same,"kinase still bound, per cent of control",[10],100%
same,"kinase still bound, per cent of control",[11],100%
same,"kinase still bound, per cent of control",[12],100%
same,"kinase still bound, per cent of control",[13],76%
same,"kinase still bound, per cent of control",[14],100%
same,"kinase still bound, per cent of control",[15],100%
same,"kinase still bound, per cent of control",[16],100%
same,"kinase still bound, per cent of control",[17],100%
same,"kinase still bound, per cent of control",[18],100%
same,"kinase still bound, per cent of control",[19],100%
same,"kinase still bound, per cent of control",[20],87%
same,"kinase still bound, per cent of control",[21],81%
same,"kinase still bound, per cent of control",[22],100%
same,"kinase still bound, per cent of control",[23],97%
same,"kinase still bound, per cent of control",[24],100%
same,"kinase still bound, per cent of control",[25],100%
same,"kinase still bound, per cent of control",[26],69%
same,"kinase still bound, per cent of control",[27],84%
same,"kinase still bound, per cent of control",[28],100%
same,"kinase still bound, per cent of control",[29],100%
same,"kinase still bound, per cent of control",[30],93%
same,"kinase still bound, per cent of control",[31],100%
same,"kinase still bound, per cent of control",[32],77%
same,"kinase still bound, per cent of control",[33],100%
same,"kinase still bound, per cent of control",[34],74%
same,"kinase still bound, per cent of control",[35],91%
same,"kinase still bound, per cent of control",[37],100%
same,"kinase still bound, per cent of control",[38],100%
same,"kinase still bound, per cent of control",[39],86%
same,"kinase still bound, per cent of control",[40],100%
same,"kinase still bound, per cent of control",[41],96%
